How the values were obtained:
[1] = target: T1, Melatonin receptor type 1B (Homo sapiens, UniProt P49286); assay: Inhibition of 2-[125I]iodomelatonin binding to membrane preparations of NIH3T3 cells stably expressing human Melatonin receptor type 1B; assay type: cell membranes
T1 sequence (P49286 whole entry): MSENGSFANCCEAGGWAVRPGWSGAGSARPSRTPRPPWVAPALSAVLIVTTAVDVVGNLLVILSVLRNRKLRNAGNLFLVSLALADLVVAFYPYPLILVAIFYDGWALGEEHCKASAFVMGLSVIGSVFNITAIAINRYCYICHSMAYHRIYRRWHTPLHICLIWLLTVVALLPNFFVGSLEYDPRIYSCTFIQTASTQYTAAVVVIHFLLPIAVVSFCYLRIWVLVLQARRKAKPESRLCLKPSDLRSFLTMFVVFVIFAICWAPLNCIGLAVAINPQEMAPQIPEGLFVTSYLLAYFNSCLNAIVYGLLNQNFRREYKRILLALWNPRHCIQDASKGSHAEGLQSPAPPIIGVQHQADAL

[2] = target: T2, Melatonin receptor type 1A (Homo sapiens, UniProt P48039); assay: Inhibition of 2-[125I]iodomelatonin binding to membrane preparations of NIH3T3 cells stably expressing human Melatonin receptor type 1A; assay type: cell membranes
T2 sequence (P48039 whole entry): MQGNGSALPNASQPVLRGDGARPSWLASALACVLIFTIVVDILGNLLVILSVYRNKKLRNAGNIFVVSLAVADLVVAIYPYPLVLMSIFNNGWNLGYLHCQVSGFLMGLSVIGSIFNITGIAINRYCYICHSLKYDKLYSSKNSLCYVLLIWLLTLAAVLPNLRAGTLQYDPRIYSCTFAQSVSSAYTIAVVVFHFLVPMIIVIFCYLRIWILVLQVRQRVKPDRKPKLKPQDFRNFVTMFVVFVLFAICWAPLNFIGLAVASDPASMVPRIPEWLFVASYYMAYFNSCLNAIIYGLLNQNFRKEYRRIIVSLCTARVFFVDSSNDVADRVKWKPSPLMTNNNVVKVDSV

[3] = Bioavailability in rat (dose 1 mg/kg p.o.); assay type: ADME, organism-based; settings: in vivo, po
[4] = Clearance in rats after the administration of 1 mg/kg i.v. dose; assay type: ADME, organism-based; parameters: dose 1 mg/kg, route intravenous; settings: rat, in vivo, iv
[5] = target: T2, Melatonin receptor type 1A; assay: Intrinsic activity towards human Melatonin receptor type 1A relative to melatonin
[6] = target: T2, Melatonin receptor type 1A; assay: Agonist activity towards human Melatonin receptor type 1A was determined by its ability to inhibit forskolin stimulated cAMP accumulation; assay type: functional
[7] = Volume of distribution in rats after the administration of 1 mg/kg i.v. dose; assay type: ADME, organism-based; parameters: dose 1 mg/kg, route intravenous; settings: rat, in vivo, iv
[8] = Half-life in rats after the administration of 1 mg/kg i.v. dose; assay type: ADME, organism-based; parameters: dose 1 mg/kg, route intravenous; settings: rat, in vivo, iv
[9] = target: T1, Melatonin receptor type 1B; assay: Agonist activity towards human Melatonin receptor type 1B was determined by its ability to inhibit forskolin stimulated cAMP accumulation; assay type: functional

| SMILES | Ki [1] [nM] | Ki [2] [nM] | other results |
| --- | --- | --- | --- |
| CCC(=O)NCCCc1cccc2oc(CCCCc3ccccc3)cc12 | 60 | 7.5 |  |
| CC(C)C(=O)NCCCc1cccc2oc(CCCCc3ccccc3)cc12 | 83 | 3.7 |  |
| CCCC(=O)NC[C@@H]1CC1c1cccc2oc(CCCCc3ccccc3)cc12 (some centres undefined) | 10 | 10 |  |
| CCNC(=O)NC[C@@H]1C[C@H]1c1cccc2oc(CCCCc3ccccc3)cc12 | 90 | 33 |  |
| O=C(NCCCc1cccc2oc(CCCCc3ccccc3)cc12)C1CC1 | 95 | 6 |  |
| CC(C)C(=O)NC[C@@H]1CC1c1cccc2oc(CCCCc3ccccc3)cc12 (some centres undefined) | 54 | 23 |  |
| CCCC(=O)NCCCc1cccc2oc(CCCCc3ccccc3)cc12 | 82 | 16 |  |
| CCNC(=O)NCCCc1cccc2oc(CCCCc3ccccc3)cc12 | 52 | 21 |  |
| COc1ccc2[nH]cc(CCNC(C)=O)c2c1 [MELATONIN] |  |  | bioavailability [3]: 24% |
| CC(=O)NC[C@@H]1CC1c1cccc2oc(CCCCc3ccccc3)cc12 (some centres undefined) | 10 | 2.6 | bioavailability [3]: 90%; clearance [4]: 27.5 mL/min/kg; Activity [5]: 0.97; EC50 [6]: 0.6 nM; Vd [7]: 0.557 L/kg; half-life [8]: 3.8 h; EC50 [9]: 21 nM |
| CCC(=O)NC[C@@H]1CC1c1cccc2oc(CCCCc3ccccc3)cc12 (some centres undefined) | 2.8 | 2.1 |  |
| CC(=O)NCCCc1cccc2oc(CCCCc3ccccc3)cc12 | 127 | 19 |  |

Second part, led by results:

| Ki [1] [nM] | Ki [2] [nM] | SMILES | other results |
| --- | --- | --- | --- |
| 33 | 16 | O=C(NC[C@@H]1CC1c1cccc2oc(CCCCc3ccccc3)cc12)C1CC1 (some centres undefined) |  |
| 7.2 | 11 | CCCC(=O)N[C@H]1CCN(c2cccc3oc(CCCCc4ccccc4)cc23)C1 |  |
| 162 | 105 | CC(C)C(=O)N[C@H]1CCN(c2cccc3oc(CCCCc4ccccc4)cc23)C1 |  |
| 98 | 39 | CCNC(=O)N[C@H]1CCN(c2cccc3oc(CCCCc4ccccc4)cc23)C1 |  |
| 14 | 22 | CC(=O)N[C@H]1CCN(c2cccc3oc(CCCCc4ccccc4)cc23)C1 |  |
| 152 | 42 | O=C(N[C@H]1CCN(c2cccc3oc(CCCCc4ccccc4)cc23)C1)C1CC1 |  |
| 6 | 2.4 | CCC(=O)N[C@H]1CCN(c2cccc3oc(CCCCc4ccccc4)cc23)C1 |  |
